Measurements reported in US7371730B2, “Crystals of glucopyranosyloxybenzyl benzene derivative” (Kissei Pharmaceutical Co., Ltd., priority 2002, dated 2008).

Assay: Stability test (storage; HPLC residual percentage and X-ray powder diffraction)
Type: physicochemical
Settings: storage 40° C./75% RH, 2 months, stopper tightly, and 60° C.
Description: Stability tests were carried out under the following conditions for crystalline forms α and β. Residual percentages of test substances were determined by HPLC, and changes in crystalline form were examined by X-ray powder diffraction analysis.
• detection; 225 nm • column; Inertsil ODS-3 • column temperature; 30° C. • mobile phase; 0.02 mol/L phosphate buffer (pH 3.0): acetonitrile=58:42→30:70 • flow rate; 1.0 mL/min. Storage conditions: • 1) 40° C./75% RH, 2 months, stopper tightly • 2) 60° C., 2 months, stopper tightly

changes in crystalline form (X-ray powder diffraction analysis): no change
residual percentage of test substance (HPLC): no change
SMILES: CCOC(=O)OC[C@H]1O[C@@H](Oc2ccccc2Cc2ccc(OC)cc2)[C@H](O)[C@@H](O)[C@@H]1O [crystalline form α, 2-(4-methoxybenzyl)phenyl 6-O-ethoxycarbonyl-β-D-glucopyranoside]
